Several values for one entry are separate records, joined by “and”; a condition that tells them apart may be missing. Identical values can stand only once. Inconclusive results and toxic doses are left out. No stated cut-off is given here; in the data, active means T/C of 150% or more; inactive means T/C below 125%.
System: L1210 leukemia ip in BDF1 mice, survival T/C
Test: NCI In Vivo Anticancer Drug Screen. Data for tumor model L1210 Leukemia (intraperitoneal) in B6D2F1 (BDF1) mice
Conditions: endpoint: mean survival time, higher = longer survival
Procedure, shortened: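 Tumor was transplanted into mice, which were then dosed with test compound or vehicle alone. Survival was recorded for each group, and the treated figure was expressed relative to the control figure.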

[1] = dose: 100.0 mg/kg/injection, schedule: Q04DX003 (ip), vehicle: Klucel (hydroxypropylcellulose) (HPC)
[2] = dose: 200.0 mg/kg/injection, schedule: Q04DX003 (ip), vehicle: Klucel (hydroxypropylcellulose) (HPC)
[3] = dose: 100.0 mg/kg/injection, schedule: Q01DX001 (ip), vehicle: carboxymethylcellulose (CMC)
[4] = dose: 200.0 mg/kg/injection, schedule: Q01DX001 (ip), vehicle: carboxymethylcellulose (CMC)
[5] = dose: 400.0 mg/kg/injection, schedule: Q01DX001 (ip), vehicle: carboxymethylcellulose (CMC)
[6] = dose: 100.0 mg/kg/injection, schedule: Q01DX009 (ip), vehicle: saline
[7] = dose: 200.0 mg/kg/injection, schedule: Q01DX009 (ip), vehicle: saline
[8] = dose: 400.0 mg/kg/injection, schedule: Q01DX009 (ip), vehicle: saline
[9] = dose: 12.5 mg/kg/injection, schedule: Q04DX003 (ip), vehicle: saline
[10] = dose: 25.0 mg/kg/injection, schedule: Q04DX003 (ip), vehicle: saline
[11] = dose: 50.0 mg/kg/injection, schedule: Q04DX003 (ip), vehicle: saline
[12] = dose: 100.0 mg/kg/injection, schedule: Q04DX003 (ip), vehicle: saline with Tween-80
[13] = dose: 200.0 mg/kg/injection, schedule: Q04DX003 (ip), vehicle: saline with Tween-80
[14] = dose: 400.0 mg/kg/injection, schedule: Q04DX003 (ip), vehicle: saline with Tween-80
[15] = dose: 100.0 mg/kg/injection, schedule: Q01DX001 (ip), vehicle: saline

Measured: T/C

c1ccc(NP2(Nc3ccccc3)=NP(Nc3ccccc3)(Nc3ccccc3)=NP(Nc3ccccc3)(Nc3ccccc3)=N2)cc1
inactive: dose: 75.0 mg/kg/injection, schedule: Q01DX001 (ip), vehicle: saline 96 % of control | [1] 99 % of control | dose: 150.0 mg/kg/injection, schedule: Q01DX001 (ip), vehicle: saline 101 % of control | [2] 89 % of control | dose: 300.0 mg/kg/injection, schedule: Q01DX001 (ip), vehicle: saline 91 % of control

CCC/C(=N/OC(=O)N(C)C)c1ccccc1
inactive: [3] 97 % of control | [4] 98 % of control | [5] 101 % of control

O=C1Nc2ccccc2C1=O
inactive: dose: 50.0 mg/kg/injection, schedule: Q01DX009 (ip), vehicle: saline 92 % of control | [6] 103 % of control | dose: 100.0 mg/kg/injection, schedule: Q04DX003 (ip), vehicle: saline 99 % of control | [7] 103 % of control | dose: 200.0 mg/kg/injection, schedule: Q04DX003 (ip), vehicle: saline 99 % of control | [8] 96 % of control | dose: 400.0 mg/kg/injection, schedule: Q04DX003 (ip), vehicle: saline 99 % of control

O=C1C(Br)=C(N2CC2)C(=O)C(Br)=C1N1CC1
inactive: dose: 1.56 mg/kg/injection, schedule: Q04DX003 (ip), vehicle: saline 104 % of control | dose: 3.12 mg/kg/injection, schedule: Q04DX003 (ip), vehicle: saline 109 % of control | dose: 6.25 mg/kg/injection, schedule: Q04DX003 (ip), vehicle: saline 104 % of control | [9] 106 % of control | [10] 104 % of control | [11] 103 % of control

Cc1cc(C#N)cc(C)c1N
inactive: dose: 75.0 mg/kg/injection, schedule: Q01DX001 (ip), vehicle: other 100 % of control | dose: 150.0 mg/kg/injection, schedule: Q01DX001 (ip), vehicle: other 95 % of control | dose: 300.0 mg/kg/injection, schedule: Q01DX001 (ip), vehicle: other 105 % of control

Clc1ccc(C(c2ccc(Cl)cc2)C(Cl)Cl)cc1
inactive: [1] 98 % of control | [2] 98 % of control | dose: 400.0 mg/kg/injection, schedule: Q04DX003 (ip), vehicle: Klucel (hydroxypropylcellulose) (HPC) 98 % of control

CCCCCCCCCCCCCCCC[N+](C)(C)c1nc(Cl)nc(Cl)n1
inactive: dose: 3.75 mg/kg/injection, schedule: Q01DX009 (ip), vehicle: saline 102 % of control | dose: 7.5 mg/kg/injection, schedule: Q01DX009 (ip), vehicle: saline 97 % of control | dose: 15.0 mg/kg/injection, schedule: Q01DX009 (ip), vehicle: saline 96 % of control | dose: 30.0 mg/kg/injection, schedule: Q01DX009 (ip), vehicle: saline 96 % of control | dose: 37.5 mg/kg/injection, schedule: Q04DX003 (ip), vehicle: saline 102 % of control | dose: 50.0 mg/kg/injection, schedule: Q01DX001 (ip), vehicle: water 105 % of control | dose: 75.0 mg/kg/injection, schedule: Q04DX003 (ip), vehicle: saline 102 % of control | dose: 100.0 mg/kg/injection, schedule: Q01DX001 (ip), vehicle: water 100 % of control

O=C(NCCCl)C(=O)NCCCl
inactive: dose: 100.0 mg/kg/injection, schedule: Q04DX002 (ip), vehicle: Klucel (hydroxypropylcellulose) (HPC) 104 % of control | dose: 200.0 mg/kg/injection, schedule: Q04DX002 (ip), vehicle: Klucel (hydroxypropylcellulose) (HPC) 107 % of control | dose: 400.0 mg/kg/injection, schedule: Q04DX002 (ip), vehicle: Klucel (hydroxypropylcellulose) (HPC) 93 % of control

CN/N=C/c1ccc([N+](=O)[O-])cc1
inactive: dose: 25.0 mg/kg/injection, schedule: Q04DX002 (ip), vehicle: DMSO 96 % of control | dose: 50.0 mg/kg/injection, schedule: Q04DX002 (ip), vehicle: DMSO 96 % of control | dose: 100.0 mg/kg/injection, schedule: Q04DX002 (ip), vehicle: DMSO 96 % of control and 98 % of control | dose: 200.0 mg/kg/injection, schedule: Q04DX002 (ip), vehicle: DMSO 88 % of control

O/N=C1\c2ccccc2-c2cccc(I)c21
inactive: [3] 92 % of control | [4] 92 % of control | [5] 94 % of control

NCC(=O)CCS(=O)(=O)c1ccc(Cl)cc1
inactive: [9] 96 % of control | [10] 91 % of control | [11] 93 % of control

CC(O)C(O)C1OC(=O)C1O (centres undefined)
inactive: [6] 94 % of control and 98 % of control | [7] 100 % of control and 113 % of control | [8] 104 % of control and 94 % of control

CCN1c2ccccc2Sc2ccccc21
inactive: dose: 50.0 mg/kg/injection, schedule: Q01DX001 (ip), vehicle: carboxymethylcellulose (CMC) 98 % of control | [3] 98 % of control | [12] 92 % of control | [4] 102 % of control | [13] 97 % of control | [5] 98 % of control | [14] 100 % of control

COc1ccccc1[N+](C)(C)C
inactive: [15] 102 % of control

CNC(=O)C1C2C=CC(CC2)C1C(=O)NC (centres undefined)
inactive: [12] 108 % of control | [13] 100 % of control | [14] 100 % of control

CCCCCCCCCCCCOCC[N+](C/C=C/c1ccccc1)(CCO)CCO
inactive: dose: 6.25 mg/kg/injection, schedule: Q01DX009 (ip), vehicle: saline with Tween-80 93 % of control | dose: 12.5 mg/kg/injection, schedule: Q01DX009 (ip), vehicle: saline with Tween-80 95 % of control

CC(=O)Cc1cc(=O)[nH]c(=O)[nH]1
inactive: dose: 100.0 mg/kg/injection, schedule: Q01DX009 (ip), vehicle: saline with Tween-80 95 % of control | dose: 200.0 mg/kg/injection, schedule: Q01DX009 (ip), vehicle: saline with Tween-80 89 % of control

CC1CN1P(=O)(Oc1ccccc1)N1CC1C (centres undefined)
inactive: dose: 44.0 mg/kg/injection, schedule: Q01DX Z (ip), vehicle: saline 107 % of control | dose: 67.0 mg/kg/injection, schedule: Q01DX Z (ip), vehicle: saline 107 % of control | dose: 100.0 mg/kg/injection, schedule: Q01DX Z (ip), vehicle: saline 102 % of control | dose: 150.0 mg/kg/injection, schedule: Q01DX Z (ip), vehicle: saline 122 % of control

Fc1c(F)c(F)c(Oc2c(F)c(F)c3c(c2F)C2C=CC3O2)c(F)c1F (centres undefined)
inactive: dose: 50.0 mg/kg/injection, schedule: Q04DX003 (ip), vehicle: Klucel (hydroxypropylcellulose) (HPC) 95 % of control | [1] 93 % of control | [2] 93 % of control

Cc1ccc(NC(=O)COc2ccc(Cl)cc2)cc1
inactive: dose: 100.0 mg/kg/injection, schedule: Q04DX002 (ip), vehicle: saline + alcohol 103 % of control | dose: 200.0 mg/kg/injection, schedule: Q04DX002 (ip), vehicle: saline + alcohol 100 % of control | dose: 400.0 mg/kg/injection, schedule: Q04DX002 (ip), vehicle: saline + alcohol 92 % of control

O=c1[nH]cnc2nc(Br)[nH]c12
inactive: [15] 104 % of control | dose: 200.0 mg/kg/injection, schedule: Q01DX001 (ip), vehicle: saline 95 % of control | dose: 400.0 mg/kg/injection, schedule: Q01DX001 (ip), vehicle: saline 98 % of control

CC(=O)NC12CC3CC(CC(C)(C3)C1)C2
inactive: dose: 100.0 mg/kg/injection, schedule: Q01DX001 (ip), vehicle: Klucel (hydroxypropylcellulose) (HPC) 103 % of control | dose: 200.0 mg/kg/injection, schedule: Q01DX001 (ip), vehicle: Klucel (hydroxypropylcellulose) (HPC) 106 % of control

CC(C)(C)CNC(C)(C)C
inactive: dose: 5.0 mg/kg/injection, schedule: Q01DX001 (ip), vehicle: saline 109 % of control | dose: 10.0 mg/kg/injection, schedule: Q01DX001 (ip), vehicle: saline 103 % of control | dose: 20.0 mg/kg/injection, schedule: Q01DX001 (ip), vehicle: saline 100 % of control | dose: 40.0 mg/kg/injection, schedule: Q01DX001 (ip), vehicle: saline 103 % of control | dose: 50.0 mg/kg/injection, schedule: Q04DX002 (ip), vehicle: saline 112 % of control | dose: 80.0 mg/kg/injection, schedule: Q01DX001 (ip), vehicle: saline 105 % of control | dose: 100.0 mg/kg/injection, schedule: Q04DX002 (ip), vehicle: saline 104 % of control | dose: 200.0 mg/kg/injection, schedule: Q04DX002 (ip), vehicle: saline 95 % of control

Source: PubChem BioAssay AID248 (DTP/NCI, 2004)
